# Assay results from publication PMC11211886 (Frontiers in Pharmacology, 2024).
# pIC50: −log10 of the molar value.
# Columns and labels:
# [1] = target: T1, OATP1B1 (Homo sapiens, UniProt Q9Y6L6); assay: OATP1B1 inhibition, β-estradiol 17-(β-D-glucuronide) uptake in transfected HEK293 cells
# T1 sequence (Q9Y6L6 1-691): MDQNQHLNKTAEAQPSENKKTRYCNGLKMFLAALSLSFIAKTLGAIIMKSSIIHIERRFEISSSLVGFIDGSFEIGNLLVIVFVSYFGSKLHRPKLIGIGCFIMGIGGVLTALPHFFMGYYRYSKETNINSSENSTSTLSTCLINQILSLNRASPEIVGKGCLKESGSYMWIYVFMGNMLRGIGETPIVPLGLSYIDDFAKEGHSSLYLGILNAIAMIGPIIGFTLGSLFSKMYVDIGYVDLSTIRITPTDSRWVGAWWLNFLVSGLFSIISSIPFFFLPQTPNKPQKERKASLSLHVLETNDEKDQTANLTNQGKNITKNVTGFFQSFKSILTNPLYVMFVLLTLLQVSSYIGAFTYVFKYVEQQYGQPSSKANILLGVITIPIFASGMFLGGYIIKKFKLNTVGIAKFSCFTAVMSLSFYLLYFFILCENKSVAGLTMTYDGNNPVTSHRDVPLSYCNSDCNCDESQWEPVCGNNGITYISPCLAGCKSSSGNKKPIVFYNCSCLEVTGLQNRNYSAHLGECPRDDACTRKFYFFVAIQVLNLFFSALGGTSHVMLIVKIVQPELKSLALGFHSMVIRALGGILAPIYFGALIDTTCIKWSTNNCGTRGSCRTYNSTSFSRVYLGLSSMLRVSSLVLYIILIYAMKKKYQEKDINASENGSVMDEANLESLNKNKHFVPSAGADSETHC
# Experimental: (§1) The pre-incubation solutions were removed, and incubation solutions containing the inhibitors and probe substrates (or transport buffer containing an equal volume of vehicle control and probe substrates) were added and incubated at 37°C for 2 min (5 min for OATP1B3). The probe substrate for OAT1 was 4-aminohippuric acid (10 μM), for OAT3 was estrone 3-sulfate (10 μM), for OCT2 was metformin (100 μM), for OATP1B1 was β-estradiol 17-(β-D-glucuronide) (5 μM), for OATP1B3 was β-estradiol 17-(β-D-glucuronide) (10 μM), and for MATE1 and MATE2-K was tetraethylammonium (10 μM). After incubation, cells were washed three times with ice-cold transport buffer (25 mM HEPES, pH 7.4, pH 8.0 for overexpressing MATE1 and MATE2-K HEK293 cells) and lysed in distilled water. The concentrations of probe substrates were determined by LC-MS/MS, and a BCA Kit (Solarbio ®Life Sciences, Beijing, China) was used to determine the protein content in the cell lysate.
# (§2) where C is the concentration of the drug in the cell lysate (nM), P is the protein concentration of the cell lysate (mg/mL), and T is the incubation time (minute). Uptake ratetest compound is the uptake rate of the substrate in the presence of the test compound. Uptake ratevehicle control is the uptake rate of the substrate in the presence of the vehicle control. Uptake ratepassive is the uptake rate of the substrate in the presence of the positive inhibitor at the top test concentration.
# [2] = target: T2, OAT1 (Homo sapiens, UniProt Q4U2R8); assay: in vitro
# T2 sequence (Q4U2R8 1-563): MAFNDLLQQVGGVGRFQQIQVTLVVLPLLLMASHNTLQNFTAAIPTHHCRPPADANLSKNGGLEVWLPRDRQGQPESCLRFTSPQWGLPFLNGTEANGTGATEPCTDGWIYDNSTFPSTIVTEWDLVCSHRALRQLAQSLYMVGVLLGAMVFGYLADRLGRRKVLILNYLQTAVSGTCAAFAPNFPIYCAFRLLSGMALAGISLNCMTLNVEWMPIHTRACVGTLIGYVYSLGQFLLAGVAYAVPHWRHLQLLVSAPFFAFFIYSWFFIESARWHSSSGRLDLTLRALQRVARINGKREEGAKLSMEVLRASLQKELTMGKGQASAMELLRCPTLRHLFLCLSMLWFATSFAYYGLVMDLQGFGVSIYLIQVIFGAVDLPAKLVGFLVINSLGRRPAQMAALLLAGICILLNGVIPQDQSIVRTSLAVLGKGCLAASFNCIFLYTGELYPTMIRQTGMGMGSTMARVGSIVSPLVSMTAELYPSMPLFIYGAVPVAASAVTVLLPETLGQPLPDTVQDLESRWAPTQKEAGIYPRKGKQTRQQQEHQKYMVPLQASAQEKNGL
# Experimental: as §1, §2
structure (smiles),measurement,setting,value
C[C@H](Nc1ncnc(N)c1C#N)c1cc2ncc(Cl)n2nc1-c1ccccc1 [Amdizalisib],pIC50,[1],5.14
same,Percentage transported,"[1]; human, 2 min, 0.3 μM, pH 7.4",113%
same,Uptake rate,"[1]; human, 2 min, 0.3 μM, pH 7.4",59.0±1.42 pmol/mg protein/min
same,Percentage transported,"[1]; human, 2 min, 1 μM, pH 7.4",105%
same,Uptake rate,"[1]; human, 2 min, 1 μM, pH 7.4",55.1±2.95 pmol/mg protein/min
same,Percentage transported,"[1]; human, 2 min, 3 μM, pH 7.4",86.5%
same,Uptake rate,"[1]; human, 2 min, 3 μM, pH 7.4",47.2±3.13 pmol/mg protein/min
same,Percentage transported,"[1]; human, 2 min, 10 μM, pH 7.4",32.7%
same,Uptake rate,"[1]; human, 2 min, 10 μM, pH 7.4",19.3±4.10 pmol/mg protein/min
same,Percentage transported,"[1]; human, 2 min, 30 μM, pH 7.4",8.04%
same,Percentage transported,"[1]; human, 2 min, 100 μM, pH 7.4",-3.17%
same,Uptake rate,"[1]; human, 2 min, 100 μM, pH 7.4",1.46±0.141 pmol/mg protein/min
same,calculated R value (OATP1B1),"[1]; human, 2 min, pH 7.4",3.8
same,"inhibition at 2 min, 0.3 µM","[1]; human, pH 7.4",-12.5%
same,"inhibition at 2 min, 1 µM","[1]; human, pH 7.4",-4.64%
same,"inhibition at 2 min, 3 µM","[1]; human, pH 7.4",13.5%
same,"inhibition at 2 min, 10 µM","[1]; human, pH 7.4",67.3%
same,"inhibition at 2 min, 30 µM","[1]; human, pH 7.4",92%
same,"inhibition at 2 min, 100 µM","[1]; human, pH 7.4",103%
same,pIC50,[2],5.38
same,Percentage transported,"[2]; OAT1, compound 0.3 μM",96.4%
same,Uptake rate,"[2]; OAT1, compound 0.3 μM",489±79.6 pmol/mg protein/min
same,Percentage transported,"[2]; OAT1, compound 1 μM",91.6%
same,Uptake rate,"[2]; OAT1, compound 1 μM",467±34.8 pmol/mg protein/min
same,Percentage transported,"[2]; OAT1, compound 3 μM",50.9%
same,Uptake rate,"[2]; OAT1, compound 3 μM",278±37.1 pmol/mg protein/min
same,Percentage transported,"[2]; OAT1, compound 10 μM",33.3%
same,Uptake rate,"[2]; OAT1, compound 10 μM",196±6.18 pmol/mg protein/min
same,Percentage transported,"[2]; OAT1, compound 30 μM",7.47%
same,Uptake rate,"[2]; OAT1, compound 30 μM",76.5±17.7 pmol/mg protein/min
same,Percentage transported,"[2]; OAT1, compound 100 μM",-7.21%
same,Uptake rate,"[2]; OAT1, compound 100 μM",8.38±1.24 pmol/mg protein/min
same,"inhibition at 2 min, 0.3 µM","[2]; human, pH 7.4",3.65%
same,"inhibition at 2 min, 1 µM","[2]; human, pH 7.4",8.44%
same,"inhibition at 2 min, 3 µM","[2]; human, pH 7.4",49.1%
same,"inhibition at 2 min, 10 µM","[2]; human, pH 7.4",66.7%
same,"inhibition at 2 min, 30 µM","[2]; human, pH 7.4",92.5%
same,"inhibition at 2 min, 100 µM","[2]; human, pH 7.4",107%
same,calculated R value (OAT1),[2]; renal OATs,< 1.1
